The text below walks through data of US8785445B2 (Array BioPharma Inc., priority 2008, dated 2014).

The target in the first test is T1, human DP2 (Homo sapiens, UniProt Q9Y5Y4).
T1 construct: expressed in transfected cells; membranes prepared
T1 sequence (Q9Y5Y4 1-395): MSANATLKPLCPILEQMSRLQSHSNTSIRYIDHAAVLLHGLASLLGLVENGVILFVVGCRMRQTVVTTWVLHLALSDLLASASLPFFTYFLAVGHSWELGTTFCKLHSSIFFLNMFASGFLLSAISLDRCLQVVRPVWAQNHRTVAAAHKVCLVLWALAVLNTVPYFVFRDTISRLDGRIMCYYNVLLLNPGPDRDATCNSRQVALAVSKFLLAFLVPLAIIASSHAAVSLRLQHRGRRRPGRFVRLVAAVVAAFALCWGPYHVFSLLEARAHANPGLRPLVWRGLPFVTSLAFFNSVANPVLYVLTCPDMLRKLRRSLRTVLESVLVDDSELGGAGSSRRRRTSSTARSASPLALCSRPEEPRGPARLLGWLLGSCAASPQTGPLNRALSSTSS
The test is described as follows: DP-2 binding inhibition assay (3H-PGD2, membranes of DP2-expressing K562 cells). Conditions: 0.1% BSA, read-out: EC50 (nM) 0.1% BSA. Put shortly:
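Displacement of 3H-PGD2 was measured by filtration and scintillation counting after 60 min at room temperature, using membranes of DP2-transfected K562 cells in 0.1% BSA, 1% HSA or 4% HSA.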
Consider `N#Cc1cc2c(cc1Oc1ccc(C(=O)Nc3ccc4ccccc4n3)cc1)OCCC2C(=O)O` (stereo not drawn) [Example 3, 6-Cyano-7-(4-(quinolin-2-ylcarbamoyl)phenoxy)chroman-4-carboxylic acid], for which the concentration giving a half-maximal response (EC50) (commonly the concentration needed to bring the measured effect to its halfway point) is 12.8 nM.

Consider `Cc1nsc2ccc(NC(=O)c3ccc(Oc4cc5c(cc4C#N)C(C(=O)O)CCO5)cc3)cc12` (stereo not drawn) [Example 190, 6-cyano-7-(4-(3-methylbenzo[d]isothiazol-5-ylcarbamoyl)phenoxy) chroman-4-carboxylic acid], for which the half-maximal effective concentration (EC50) amounted to 49.3 nM.

Regarding `N#Cc1cc2c(cc1Oc1ccc(C(=O)Nc3nc4ccc(Cl)cc4s3)cc1)OCCC2C(=O)O` (stereo not drawn) [Example 196], the EC50 turned out to be 11 nM.

For the compound `N#Cc1cc2c(cc1Oc1ccc(C(=O)Nc3nc4ccc(C(F)(F)F)cc4s3)cc1)OCCC2C(=O)O` (stereo not drawn) [Example 201, 6-cyano-7-(4-(6-(trifluoromethyl)benzo[d]thiazol-2-ylcarbamoyl)phenoxy)chroman-4-carboxylic acid], the concentration for a half-maximal effect (EC50) came to 5.1 nM.

On to `N#Cc1cc2c(cc1Oc1ccc(C(=O)Nc3cnc4ccccc4n3)cc1)OCCC2C(=O)O` (stereo not drawn) [Example 4, 6-Cyano-7-(4-(quinoxalin-2-ylcarbamoyl)phenoxy)chroman-4-carboxylic acid], for which the EC50 is 27.7 nM.

As to `N#Cc1cc2c(cc1Oc1ccc(C(=O)Nc3ccc4nc(C(F)(F)F)[nH]c4c3)cc1)OCCC2C(=O)O` (stereo not drawn) [Example 191, 6-cyano-7-(4-(2-(trifluoromethyl)-1H-benzo[d]imidazol-6-ylcarbamoyl)phenoxy) chroman-4-carboxylic acid], the EC50 stood at 41.5 nM.

Staying with this test, now noted: 1% HSA, read-out: EC50 (nM) 1% HSA.
Turning to `N#Cc1cc2c(cc1Oc1ccc(C(=O)Nc3ccc4ccccc4n3)cc1)OCCC2C(=O)O` (stereo not drawn) [Example 3, 6-Cyano-7-(4-(quinolin-2-ylcarbamoyl)phenoxy)chroman-4-carboxylic acid], the EC50 is 482 nM.

As to `N#Cc1cc2c(cc1Oc1ccc(C(=O)Nc3nc4ccc(Cl)cc4s3)cc1)OCCC2C(=O)O` (stereo not drawn) [Example 196], the EC50 was 352 nM.

On to `N#Cc1cc2c(cc1Oc1ccc(C(=O)Nc3cnc4ccccc4n3)cc1)OCCC2C(=O)O` (stereo not drawn) [Example 4, 6-Cyano-7-(4-(quinoxalin-2-ylcarbamoyl)phenoxy)chroman-4-carboxylic acid], for which the 50% effective concentration (EC50) stood at 370 nM.

Regarding `N#Cc1cc2c(cc1Oc1ccc(C(=O)Nc3ccc4nc(C(F)(F)F)[nH]c4c3)cc1)OCCC2C(=O)O` (stereo not drawn) [Example 191, 6-cyano-7-(4-(2-(trifluoromethyl)-1H-benzo[d]imidazol-6-ylcarbamoyl)phenoxy) chroman-4-carboxylic acid], the EC50 came out at 137 nM.

The test is the same for the next values; noted with them: 4% HSA, read-out: EC50 (nM) 4% HSA.
Turning to `O=C(Nc1ccc(-c2ccc(C(F)(F)F)cc2F)nn1)c1ccc(Oc2cc3c(cc2Cl)C(C(=O)O)CCO3)cc1` (stereo not drawn) [Example 70, Sodium 6-chloro-7-(4-(6-(2-fluoro-4-(trifluoromethyl)phenyl)pyridazin-3-ylcarbamoyl)phenoxy)chroman-4-carboxylate], the EC50 amounted to 437 nM.

Regarding `COc1ccc(-n2ccc(NC(=O)c3ccc(Oc4cc5c(cc4Cl)C(C(=O)O)CCO5)cc3)n2)cc1` (stereo not drawn) [Example 170, 6-chloro-7-(4-(1-(4-methoxyphenyl)-1H-pyrazol-3-ylcarbamoyl)phenoxy)chroman-4-carboxylic acid], the concentration for a half-maximal effect (EC50) worked out at 292 nM.

Regarding `O=C(Nc1cccc(-c2ccc(Cl)cc2)n1)c1ccc(Oc2cc3c(cc2Cl)[C@@H](C(=O)O)CCO3)cc1` (single isomer, unassigned; enantiomer 1) [Example 141, 6-Chloro-7-(4-(6-(4-chlorophenyl)pyridin-2-ylcarbamoyl)phenoxy)chroman-4-carboxylic acid, Enantiomer 1], the EC50 is 3920 nM.

On to `O=C(Nc1cncc(-c2ccc(Cl)cc2)n1)c1ccc(Oc2cc3c(cc2Cl)C(C(=O)O)CCO3)cc1` (stereo not drawn) [Example 79, 6-chloro-7-(4-(6-(4-chlorophenyl)pyrazin-2-ylcarbamoyl)phenoxy)chroman-4-carboxylic acid], for which the EC50 amounted to 105 nM.

For `N#Cc1cc2c(cc1Oc1ccc(C(=O)Nc3cc4ccccc4cn3)cc1)OCCC2C(=O)O` (stereo not drawn) [Example 9, 6-Cyano-7-(4-(isoquinolin-3-ylcarbamoyl)phenoxy)chroman-4-carboxylic acid], the concentration giving a half-maximal response (EC50) turned out to be 774 nM.

As for `O=C(Nc1ccnc(-c2ccc(Cl)cc2)c1)c1ccc(Oc2cc3c(cc2Cl)C(C(=O)O)CCO3)cc1` (stereo not drawn) [Example 128, 6-Chloro-7-(4-(2-(4-chlorophenyl)pyridin-4-ylcarbamoyl)phenoxy)chroman-4-carboxylic acid], the EC50 was 596 nM.

As for `Cc1cccc(-c2cccc(NC(=O)c3ccc(Oc4cc5c(cc4C#N)C(C(=O)O)CCO5)cc3)n2)c1C` (stereo not drawn) [Example 40, 6-Cyano-7-(4-(6-(2,3-dimethylphenyl)pyridin-2-ylcarbamoyl)-phenoxy)-chroman-4-carboxylic acid], the EC50 worked out at 120 nM.

On to `CC(C)Oc1ncccc1CCNC(=O)c1ccc(Oc2cc3c(cc2Cl)C(C(=O)O)CCO3)cc1` (stereo not drawn) [Example 228, 6-chloro-7-(4-(2-(2-isopropoxypyridin-3-yl)ethylcarbamoyl)phenoxy) chroman-4-carboxylic acid], for which the EC50 is 195 nM.

`N#Cc1cc2c(cc1Oc1ccc(C(=O)Nc3nc4ccc(C(F)(F)F)cc4s3)cc1)OCCC2C(=O)O` (stereo not drawn) [Example 201, 6-cyano-7-(4-(6-(trifluoromethyl)benzo[d]thiazol-2-ylcarbamoyl)phenoxy)chroman-4-carboxylic acid]: the EC50 amounted to 355 nM.

With `Cc1ccc(-c2ccc(NC(=O)c3ccc(Oc4cc5c(cc4Cl)C(C(=O)O)CCO5)cc3)nn2)cc1` (stereo not drawn) [Example 62, Sodium 6-chloro-7-(4-(6-p-tolylpyridazin-3-ylcarbamoyl)phenoxy)chroman-4-carboxylate], the EC50 is 327 nM.

For `Cc1ccc(-c2cccc(NC(=O)c3ccc(Oc4cc5c(cc4Cl)C(C(=O)O)CCO5)cc3)n2)cc1F` (stereo not drawn) [Example 88, 6-Chloro-7-(4-(6-(3-fluoro-4-methylphenyl)pyridin-2-ylcarbamoyl)phenoxy)chroman-4-carboxylic acid], the EC50 was determined as 55.5 nM.

For the compound `O=C(Nc1cccc(-c2ccc(Cl)cc2)n1)c1ccc(Oc2cc3c(cc2Cl)[C@H](C(=O)O)CCO3)cc1` (single isomer, unassigned; enantiomer 2) [Example 142, 6-Chloro-7-(4-(6-(4-chlorophenyl)pyridin-2-ylcarbamoyl)phenoxy)chroman-4-carboxylic acid, Enantiomer 2], the EC50 stood at 21.7 nM.

Consider `O=C(NCCc1ncc(Cl)cc1Cl)c1ccc(Oc2cc3c(cc2Cl)C(C(=O)O)CCO3)cc1` (stereo not drawn) [Example 138, Sodium 6-chloro-7-(4-(2-(3,5-dichloropyridin-2-yl)ethylcarbamoyl)phenoxy)chroman-4-carboxylate], for which the EC50 turned out to be 687 nM.

For the compound `CC(C)(C)c1csc(NC(=O)c2ccc(Oc3cc4c(cc3Cl)C(C(=O)O)CCO4)cc2)n1` (stereo not drawn) [Example 150, 7-(4-(4-tert-butylthiazol-2-ylcarbamoyl)phenoxy)-6-chlorochroman-4-carboxylic acid], the half-maximal effective concentration (EC50) is 32.7 nM.

For `O=C(Nc1cnn(-c2cccc(Cl)c2)c1)c1ccc(Oc2cc3c(cc2Cl)C(C(=O)O)CCO3)cc1` (stereo not drawn) [Example 164, Sodium 6-chloro-7-(4-(1-(3-chlorophenyl)-1H-pyrazol-4-ylcarbamoyl)phenoxy)chroman-4-carboxylate], the EC50 was determined as 143 nM.

`O=C(Nc1ccc(-c2ccc(Cl)cc2)nn1)c1ccc(Oc2cc3c(cc2Cl)C(C(=O)O)CCO3)cc1` (stereo not drawn) [Example 209, 6-chloro-7-(4-(6-(4-chlorophenyl)pyridazin-3-ylcarbamoyl)phenoxy) chroman-4-carboxylic acid]: the EC50 worked out at 207 nM.

For the compound `O=C(Nc1ccn(Cc2ccc(Cl)cc2)n1)c1ccc(Oc2cc3c(cc2Cl)C(C(=O)O)CCO3)cc1` (stereo not drawn) [Example 179, 6-chloro-7-(4-(1-(4-chlorobenzyl)-1H-pyrazol-3-ylcarbamoyl)phenoxy)chroman-4-carboxylic acid], the EC50 turned out to be 247 nM.

As to `COc1ccc(-c2ccc(NC(=O)c3ccc(Oc4cc5c(cc4Cl)C(C(=O)O)CCO5)cc3)nc2)cn1` (stereo not drawn) [Example 73, Sodium 6-chloro-7-(4-(6′-methoxy-3,3′-bipyridin-6-ylcarbamoyl)phenoxy)chroman-4-carboxylate], the EC50 stood at 959 nM.

As to `CSc1ccc(-c2ccc(NC(=O)c3ccc(Oc4cc5c(cc4Cl)C(C(=O)O)CCO5)cc3)nn2)cc1` (stereo not drawn) [Example 64, Sodium 6-chloro-7-(4-(6-(4-(methylthio)phenyl)pyridazin-3-ylcarbamoyl)phenoxy)chroman-4-carboxylate], the EC50 is 344 nM.

As for `CN(C)c1ncccc1CCNC(=O)c1ccc(Oc2cc3c(cc2Cl)C(C(=O)O)CCO3)cc1` (stereo not drawn) [Example 225, 6-chloro-7-(4-(2-(2-(dimethylamino)pyridin-3-yl)ethylcarbamoyl)phenoxy) chroman-4-carboxylic acid], the EC50 worked out at 664 nM.

Consider `O=C(Nc1ccc(-c2ccc(C(F)(F)F)cc2Cl)nn1)c1ccc(Oc2cc3c(cc2Cl)C(C(=O)O)CCO3)cc1` (stereo not drawn) [Example 59, Sodium 6-chloro-7-(4-(6-(2-chloro-4-(trifluoromethyl)phenyl)pyridazin-3-ylcarbamoyl)phenoxy)chroman-4-carboxylate], for which the EC50 came out at 283 nM.

Take `O=C(Nc1nc(-c2ccc(F)cc2)cs1)c1ccc(Oc2cc3c(cc2Cl)C(C(=O)O)CCO3)cc1` (stereo not drawn) [Example 153, 6-chloro-7-(4-(4-(4-fluorophenyl)thiazol-2-ylcarbamoyl)phenoxy)chroman-4-carboxylic acid]: the EC50 was determined as 67.5 nM.

As for `O=C(Nc1cc(-c2cccc(Cl)c2)ccn1)c1ccc(Oc2cc3c(cc2Cl)C(C(=O)O)CCO3)cc1` (stereo not drawn) [Example 121, 6-Chloro-7-(4-(4-(3-chlorophenyl)pyridin-2-ylcarbamoyl)phenoxy)chroman-4-carboxylic acid], the EC50 amounted to 1890 nM.

Take `O=C(NCCc1cccnc1C1CC1)c1ccc(Oc2cc3c(cc2Cl)C(C(=O)O)CCO3)cc1` (stereo not drawn) [Example 223, 6-chloro-7-(4-(2-(2-cyclopropylpyridin-3-yl)ethylcarbamoyl)phenoxy) chroman-4-carboxylic acid]: the EC50 was 210 nM.

For the compound `O=C(Nc1ccnc(-c2ccc(Cl)cc2)n1)c1ccc(Oc2c(Cl)cc3c(c2Cl)OCCC3C(=O)O)cc1` (stereo not drawn) [Example 137, 6,8-Dichloro-7-(4-(2-(4-chlorophenyl)pyrimidin-4-ylcarbamoyl)phenoxy)chroman-4-carboxylic acid], the EC50 turned out to be 80.9 nM.

In the case of `O=C(Nc1ccnc(-c2ccc(Cl)cc2)n1)c1ccc(Oc2cc3c(cc2Cl)C(C(=O)O)CCO3)cc1` (stereo not drawn) [Example 100, sodium 6-chloro-7-(4-(2-(4-chlorophenyl)pyrimidin-4-ylcarbamoyl)phenoxy)chroman-4-carboxylate], the EC50 stood at 46 nM.
